The values below come from patent US7683062B2, “Crystalline form” (sanofi-aventis U.S. LLC, priority 2005, dated 2010).

Data set [1] is described as follows: Preliminary absorption studies with standard formulations. It is filed as in vivo.
Data set [2] can be described thus: Stability testing of polymorphic form (FTIR). In kind it is physicochemical. The protocol: Fourier Transform IR spectra were obtained with a Nicolet 750 Magna brand system. The drug substance was ground with dry potassium bromide (KBr) at a concentration of 1 mg drug substance/200 mg KBr and compressed into a disk (200 mg) at 10,000 lbs for analysis.
Samples were analyzed at 2 months. The chamber humidity was controlled via a saturated sodium chloride aqueous solution.

Data set [3] has as its target peripheral-type benzodiazepine receptors (Homo sapiens, UniProt P30536). As to conditions: cited from earlier work.
In data set [4] the test system is animal models of rheumatoid arthritis. As to the kind of experiment: Animal models of rheumatoid arthritis. In kind it is in vivo. As to conditions: by modulating the immune response.

Sequence of peripheral-type benzodiazepine receptors (P30536 whole entry): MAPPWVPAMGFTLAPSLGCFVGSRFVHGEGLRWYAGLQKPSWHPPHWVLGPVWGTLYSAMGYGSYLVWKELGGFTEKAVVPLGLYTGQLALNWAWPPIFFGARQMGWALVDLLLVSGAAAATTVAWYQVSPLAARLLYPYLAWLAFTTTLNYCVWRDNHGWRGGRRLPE

For `CN(C)C(=O)Cc1nn(-c2ccccc2)c(=O)c2c1c1ccc(Cl)cc1n2C` [Form I, 7-chloro-N,N,5-trimethyl-4-oxo-3-phenyl-3,5-dihydro-4H-pyridazino[4,5-b]indole-1-acetamide], in data set [1], the “absorption of the drug” value is given as “limited absorption”.

On to `CN(C)C(=O)Cc1nn(-c2ccccc2)c(=O)c2c1c1ccc(Cl)cc1n2C` [Form II, 7-chloro-N,N,5-trimethyl-4-oxo-3-phenyl-3,5-dihydro-4H-pyridazino[4,5-b]indole-1-acetamide], for which the “physical stability (conversion to Form I by FTIR)” value in data set [2] (50° C./75% relative humidity, open glass vials, two months, FIG. 9) is recorded as “no changes indicative of conversion to Form I”. Besides, the “physical stability (conversion into other form)” value in data set [2] (normal storage conditions (room temperature)) is listed as “does not convert into any other form”.

As for `CN(C)C(=O)Cc1nn(-c2ccccc2)c(=O)c2c1c1ccc(Cl)cc1n2C` [7-Chloro-N,N,5-trimethyl-4-oxo-3-phenyl-3,5-dihydro-4H-pyridazino[4,5-b]indole-1-acetamide], the “affinity for the peripheral-type benzodiazepine receptors” value in data set [3] is on record as “high affinity”. Further, the “pharmacological activity in animal models of rheumatoid arthritis” value in data set [4] is listed as “has shown pharmacological activity”.
